The source of these data is US11839873B2, “Valveless fluidic switching flowchip and uses thereof” (Protein Fluidics, Inc., priority 2018, dated 2023).

For assay [1], the system named is HUVECs stimulated with an inflammatory cytokine mixture of TNF-α, IL-1β, and IFN-γ (IL-8, IL-6, MCP-1 upregulation). The experiment in a line: Multiparametric HUVEC inflammation assay, secreted cytokines quantified by microfluidic flowchip ELISA. The settings on record: for HUVEC inflammation response as shown by upregulation of IL-8, IL-6, and MCP-1: HUVECs stimulated with TNF-α, IL-1β, IFN-γ mixture for 20 hours at 37° C., concentration dependent effect of compound; for IL-8 expression: HUVECs, compounds added 1 hour prior to inflammatory cytokine mixture, 20 hours at 37° C. It is filed as cell-based, human. For orientation: In an ELISA, binding on a coated surface is turned into a signal by an enzyme label.
Excerpt: We present results from a multiparametric primary human cell-based assay that uses immunoassays for secreted cytokines to evaluate the effect of different mediators on inflammatory response. Expression of the inflammation markers from primary human umbilical vein endothelial cells (HUVEC) stimulated with inflammation cytokines (TNF-α, IFN-γ, and IL-1β) was quantified by microfluidic-based ELISAs.
The Capture and Primary antibodies are specific to each immunoassay and matched antibody pairs for the MCP-1, IL-8, and IL-6 assays were obtained from a commercial source (Biolegend, San Diego, CA). The buffers and Stop Solution are common to all three assays and were made using materials obtained from Sigma-Aldrich. The SA-HRP (Becton Dickenson, San Diego, CA) and Substrate (Abcam, Cambridge, MA) were also common to each assay. The Capture Ab's were used at a concentration of 10 μg/ml and made by diluting stock Ab in a Coating Buffer solution containing phosphate buffered saline (PBS). The Primary Ab's were used at a concentration of 1 μg/ml and made by diluting stock Ab in an Assay Buffer solution containing PBS, bovine serum albumin (BSA), and Tween20. The Blocking Buffer consisted of BSA diluted in PBS. The SA-HRP was also diluted in Assay Buffer and used at a concentration of 200 ng/ml. The Substrate solution was used as provided.

Assay [2] relates to THP-1 cells stimulated with PMA and LPS (IL-8, IL-1β, TNFα secretion). The experiment in a line: THP-1 cell cytokine secretion assay, microfluidic flowchip ELISA. Type of assay: cell-based, human. The settings on record: for THP-1 cellular inflammation response as shown by upregulation of IL-8: THP-1 cells stimulated with PMA and LPS for 20 hours at 37° C., concentration dependent effect of compound; for cytokine expression: THP-1 cells treated with compound prior to PMA and LPS activation, cytokine secretion quantified.
Description: THP-1 cells were stimulated with PMA and LPS for 48 hours. […] To evaluate anti-inflammatory compounds, cells were treated with the kinase inhibitors SB202190 and PDTC, and the antibiotic moxifloxacin prior to activation. Then, inhibition of the inflammation responses by those anti-inflammatory compounds was measured by quantifying cytokine secretion.
A microfluidic flowchip was designed containing multiple reservoirs and nodes that accommodate the reagents required to perform an ELISA assay. The assay channel (from Well 3 to Well 9) has a cross-section of 50 μm by 300 μm and length of 25 mm while the other transfer channels have cross-sections of 50 μm by 50 μm. […] The flowchip was made out of COC using injection molding and the bottom surface was sealed with a COC film. Each reservoir has a capacity of ˜30 μl and was filled with 20 μl of the appropriate assay reagent. Assays were performed using a single protocol for all reagents as shown in FIG. 22 carried out in the following order: Capture Antibody (W3), Blocking Buffer (W2), Sample (W1), Primary Antibody (W4), Avidin-HRP (W5), Wash Buffer (Wash), Substrate (W7), and Stop Solution (W6).
The Capture and Primary antibodies are specific to each immunoassay and matched antibody pairs for the IL-8, IL-β, and TNFα assays were obtained from a commercial source (Biolegend, San Diego, CA). The buffers and Stop Solution are common to all three assays and were made using materials obtained from Sigma-Aldrich. The Avidin-HRP (Biolegend, San Diego, CA) and Substrate (Abcam, Cambridge, MA) were also common to each assay. The Capture Ab's were used at a concentration of 10 μg/ml and made by diluting stock Ab in a Coating Buffer solution containing phosphate buffered saline (PBS). The Primary Ab's were used at a concentration of 1 μg/ml and made by diluting stock Ab in an Assay Buffer solution containing PBS, bovine serum albumin (BSA), and Tween20. The Blocking Buffer consisted of BSA diluted in PBS. The Avidin-HRP was also diluted in Assay Buffer and used at a concentration of 200 ng/ml. The Substrate solution was used as provided.
Each fluid transfer step, from a source well to a destination well, followed a fluid transfer rule that included a HP portion to move the majority of fluid through a given channel followed by a longer LP portion to empty the source well without emptying the channel as described previously. The HP portion typically was between 5 and 20 sec while the LP portion typically was between 30 and 300 sec. Incubation in the assay channel was done using a different fluid transfer rule that included successive short HP transfers followed by a delay between transfers to allow interaction of the reagents with the assay channel walls. […]

Residues, ends and D or L forms follow the SMILES beside them. *: point of attachment. Cbz = O=C(OCc1ccccc1)*

In the case of `Oc1ccc(-c2nc(-c3ccncc3)c(-c3ccc(F)cc3)[nH]2)cc1` [SB202190], in assay [1], the “HUVEC inflammation response as shown by upregulation of IL-8, IL-6, and MCP-1” value (shortened to “HUVEC inflammation response as shown”) was “clearly diminished”; the IL-8 expression entry is on record as “reduced at similar concentrations”. In assay [2], the “THP-1 cellular inflammation response as shown by upregulation of IL-8” value was “clearly diminished” and the cytokine expression entry was “Concentration-dependent decreases”.

As to `S=C(S)N1CCCC1` [PDTC], in assay [2], the “THP-1 cellular inflammation response as shown by upregulation of IL-8” value is recorded as “clearly diminished” and the cytokine expression entry is “Concentration-dependent decreases”.

`CC(C)C[C@@H](C=O)NC(=O)[C@H](CC(C)C)NC(=O)[C@H](CC(C)C)NC(=O)OCc1ccccc1` [MG-132] (Cbz-Leu-Leu-Leu-aldehyde): in assay [1], the “HUVEC inflammation response as shown” value was “clearly diminished”; the IL-8 expression entry is on record as “not affected within the concentration range studied”.

`N#CC(C#N)=Cc1ccc([N+](=O)[O-])c(O)c1` [AG-126]: in assay [1], the “HUVEC inflammation response as shown” value is listed as “clearly diminished”; the IL-8 expression entry is given as “reduced at similar concentrations”.
